The text below walks through data of patent US10544143B2, “4-azaindole compounds” (BRISTOL-MYERS SQUIBB COMPANY, priority 2017, dated 2020).

A word on the IC50: it is the midpoint of a concentration-inhibition curve.

The target in test [1] is human TLR8 (Homo sapiens (Human), UniProt Q9NR97). The test can be described thus: TLR8 inhibition reporter assay (HEK-Blue SEAP).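 Further: SEAP driven by IFN-β minimal promoter carrying NF-κB and AP-1 sites, compounds dosed 0.05 nM to 50 µM for 22 h, inhibition scaled between agonist-plus-DMSO and reference-inhibitor wells.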 The following applies: read-out: TLR8 IC50; HEK-Blue cells overexpressing human TLR8, SEAP reporter, R848 15.9 μM.
Sequence of human TLR8 (Q9NR97 27-1041): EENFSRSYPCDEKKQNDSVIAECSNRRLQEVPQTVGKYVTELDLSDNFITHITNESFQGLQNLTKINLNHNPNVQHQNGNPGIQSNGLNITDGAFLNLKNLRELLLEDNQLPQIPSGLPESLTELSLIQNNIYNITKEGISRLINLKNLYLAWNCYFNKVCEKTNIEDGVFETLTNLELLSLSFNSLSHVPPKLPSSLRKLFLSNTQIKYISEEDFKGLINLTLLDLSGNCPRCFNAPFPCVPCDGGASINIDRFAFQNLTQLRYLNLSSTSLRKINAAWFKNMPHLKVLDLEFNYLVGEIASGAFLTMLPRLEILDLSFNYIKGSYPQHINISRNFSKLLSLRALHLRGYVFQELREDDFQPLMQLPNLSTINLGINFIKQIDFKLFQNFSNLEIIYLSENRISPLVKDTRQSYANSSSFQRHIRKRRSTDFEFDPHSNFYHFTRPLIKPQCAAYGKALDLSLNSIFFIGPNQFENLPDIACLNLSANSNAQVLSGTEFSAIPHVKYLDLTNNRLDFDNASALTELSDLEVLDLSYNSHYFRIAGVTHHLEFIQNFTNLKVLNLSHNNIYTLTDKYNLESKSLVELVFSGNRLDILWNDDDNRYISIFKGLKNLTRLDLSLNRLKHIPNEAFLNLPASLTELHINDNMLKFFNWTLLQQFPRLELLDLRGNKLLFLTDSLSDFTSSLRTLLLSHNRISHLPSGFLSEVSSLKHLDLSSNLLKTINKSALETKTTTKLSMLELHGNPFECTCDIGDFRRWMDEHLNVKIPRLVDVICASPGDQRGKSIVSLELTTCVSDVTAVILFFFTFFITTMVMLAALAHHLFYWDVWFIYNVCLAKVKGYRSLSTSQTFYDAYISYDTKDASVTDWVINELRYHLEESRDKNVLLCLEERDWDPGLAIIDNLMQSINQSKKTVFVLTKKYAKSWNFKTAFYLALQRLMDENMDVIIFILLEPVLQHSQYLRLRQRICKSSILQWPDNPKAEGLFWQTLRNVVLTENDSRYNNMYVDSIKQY
For test [2], the target named is human TLR7 (Homo sapiens (Human), UniProt Q9NYK1). The test can be described thus: TLR7 inhibition reporter assay (HEK-Blue SEAP). In kind it is cell-based. The following applies: HEK-Blue cells overexpressing human TLR7, SEAP reporter, gardiquimod 7.5 μM. Background: Reporter assays use an easily measured gene product as a stand-in for the process of interest.
Sequence of human TLR7 (Q9NYK1 27-1049): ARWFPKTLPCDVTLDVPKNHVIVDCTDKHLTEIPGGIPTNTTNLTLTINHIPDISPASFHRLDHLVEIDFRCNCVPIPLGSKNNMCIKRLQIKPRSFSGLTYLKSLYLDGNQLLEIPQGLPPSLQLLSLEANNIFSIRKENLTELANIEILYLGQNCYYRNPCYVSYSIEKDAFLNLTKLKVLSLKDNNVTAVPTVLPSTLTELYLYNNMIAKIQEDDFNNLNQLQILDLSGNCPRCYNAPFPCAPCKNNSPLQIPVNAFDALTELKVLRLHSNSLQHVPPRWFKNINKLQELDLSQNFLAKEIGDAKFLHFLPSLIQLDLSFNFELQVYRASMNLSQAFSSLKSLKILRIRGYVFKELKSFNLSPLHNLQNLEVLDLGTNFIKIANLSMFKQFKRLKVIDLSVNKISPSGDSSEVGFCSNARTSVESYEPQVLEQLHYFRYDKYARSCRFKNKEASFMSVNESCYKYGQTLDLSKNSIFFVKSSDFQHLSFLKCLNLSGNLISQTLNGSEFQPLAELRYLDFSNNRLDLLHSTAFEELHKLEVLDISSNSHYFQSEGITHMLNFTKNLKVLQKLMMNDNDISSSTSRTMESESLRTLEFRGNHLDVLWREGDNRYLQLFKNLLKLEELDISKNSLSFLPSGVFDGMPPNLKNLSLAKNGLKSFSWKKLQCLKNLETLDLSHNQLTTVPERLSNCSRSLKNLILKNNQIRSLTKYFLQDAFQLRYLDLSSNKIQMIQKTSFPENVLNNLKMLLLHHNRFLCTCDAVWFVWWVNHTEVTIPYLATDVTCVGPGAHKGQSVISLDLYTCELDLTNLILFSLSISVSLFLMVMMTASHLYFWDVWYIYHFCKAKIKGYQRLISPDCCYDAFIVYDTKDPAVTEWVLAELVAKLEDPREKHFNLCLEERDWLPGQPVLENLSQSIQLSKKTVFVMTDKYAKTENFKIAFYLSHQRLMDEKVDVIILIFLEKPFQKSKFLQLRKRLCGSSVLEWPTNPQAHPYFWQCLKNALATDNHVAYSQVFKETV
For test [3], the target named is human TLR9 (Homo sapiens (Human), UniProt Q9NR96). Kind of test: TLR9 inhibition reporter assay (HEK-Blue SEAP).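 Further: SEAP driven by an IFN-β minimal promoter with NF-κB and AP-1 sites, read after 22 h, compounds dosed 0.05 nM–50 µM, inhibition scaled between agonist plus DMSO and reference-inhibitor wells.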 The following applies: read-out: TLR9 IC50; HEK-Blue cells overexpressing human TLR9, SEAP reporter, ODN2006 5 nM.
Sequence of human TLR9 (Q9NR96 26-1032): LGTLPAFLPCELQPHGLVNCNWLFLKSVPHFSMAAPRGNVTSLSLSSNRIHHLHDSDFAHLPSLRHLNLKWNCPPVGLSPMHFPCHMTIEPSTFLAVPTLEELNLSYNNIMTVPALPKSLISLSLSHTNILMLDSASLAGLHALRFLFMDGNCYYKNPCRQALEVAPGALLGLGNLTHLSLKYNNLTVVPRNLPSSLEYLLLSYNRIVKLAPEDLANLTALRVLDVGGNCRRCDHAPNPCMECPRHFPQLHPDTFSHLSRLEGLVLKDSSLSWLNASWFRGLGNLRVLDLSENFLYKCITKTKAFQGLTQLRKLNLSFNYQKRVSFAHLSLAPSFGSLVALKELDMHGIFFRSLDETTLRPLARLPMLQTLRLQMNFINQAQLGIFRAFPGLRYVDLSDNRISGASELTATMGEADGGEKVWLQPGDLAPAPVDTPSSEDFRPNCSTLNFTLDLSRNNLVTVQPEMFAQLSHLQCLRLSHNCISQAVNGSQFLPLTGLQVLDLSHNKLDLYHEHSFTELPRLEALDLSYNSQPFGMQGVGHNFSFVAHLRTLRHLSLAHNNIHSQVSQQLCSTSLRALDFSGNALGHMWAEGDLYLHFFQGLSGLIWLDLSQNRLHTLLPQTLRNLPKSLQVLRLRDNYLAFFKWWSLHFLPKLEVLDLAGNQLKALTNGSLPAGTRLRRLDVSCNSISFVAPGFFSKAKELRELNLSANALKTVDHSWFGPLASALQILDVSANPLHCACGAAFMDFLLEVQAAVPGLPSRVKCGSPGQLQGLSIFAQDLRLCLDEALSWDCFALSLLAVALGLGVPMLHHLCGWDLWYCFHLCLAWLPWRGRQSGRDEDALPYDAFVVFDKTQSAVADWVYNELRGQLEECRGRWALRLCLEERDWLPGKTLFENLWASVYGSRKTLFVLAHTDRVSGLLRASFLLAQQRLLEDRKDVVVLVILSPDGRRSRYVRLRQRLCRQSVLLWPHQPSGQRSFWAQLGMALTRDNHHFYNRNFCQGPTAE
Procedure: HEK-Blue™-cells (Invivogen) overexpressing human TLR7, TLR8 or TLR9 receptors were used for screening inhibitors of these receptors using an inducible SEAP (secreted embryonic alkaline phosphatase) reporter gene under the control of the IFN-β minimal promoter fused to five NF-κB and AP-1-binding sites. Briefly, cells are seeded into Greiner 384 well plates (15000 cells per well for TLR7, 20,000 for TLR8 and 25,000 for TLR9) and then treated with test compounds in DMSO to yield a final dose response concentration range of 0.05 nM-50 μM. After a 30 minute compound pre-treatment at room temperature, the cells are then stimulated with a TLR7 ligand (gardiquimod at a final concentration of 7.5 μM), TLR8 ligand (R848 at a final concentration of 15.9 μM) or TLR9 ligand (ODN2006 at a final concentration of 5 nM) to activate NF-κB and AP-1 which induce the production of SEAP. After a 22 hour incubation at 37° C., 5% CO2, SEAP levels are determined with the addition of HEK-Blue™ Detection reagent (Invivogen), a cell culture medium that allows for detection of SEAP, according to manufacturer's specifications.

Consider `Cc1c(-c2[nH]c3ccc(C4CCC(NCc5c[nH]nn5)CC4)nc3c2C(C)C)cn2ncnc2c1C` (stereo not drawn) [Example 412], for which the values for the IC50 in test [1], in test [2] and in test [3] were 2.1 nM, 2.2 nM and 727 nM, respectively.

For `Cc1c(-c2[nH]c3ccc(C4CCC(NCc5cnco5)CC4)nc3c2C(C)C)cn2ncnc2c1C` (stereo not drawn) [Example 413], the IC50 in test [1] is 18 nM; in test [2] it was […]; in test [3], 4740 nM.

Take `Cc1cnc(CN(C)C2CCC(c3ccc4[nH]c(-c5cn6ncnc6c(C)c5C)c(C(C)C)c4n3)CC2)cn1` (stereo not drawn) [Example 414]: the IC50 in test [1] came to 12 nM; in test [2], 5.1 nM; in test [3] it was 1760 nM.

`Cc1cnc(CN(C)C2CCC(c3ccc4[nH]c(-c5cn6ncnc6c(C)c5C)c(C(C)C)c4n3)CC2)cn1` (stereo not drawn) [Example 415]: the IC50 in test [1] is 3.5 nM; in test [2] it was 2.5 nM; in test [3], 1240 nM.

Turning to `Cc1c(-c2[nH]c3ccc(C4CCC(NCc5cnco5)CC4)nc3c2C(C)C)cn2ncnc2c1C` (stereo not drawn) [Example 416], the IC50 in test [1] stood at 1.2 nM; in test [2] it was […]; in test [3], 1620 nM.

In the case of `Cc1c(-c2[nH]c3ccc(C4CCC(NCC5(S(C)(=O)=O)CC5)CC4)nc3c2C(C)C)cn2ncnc2c1C` (stereo not drawn) [Example 419], the IC50 in test [1] worked out at 2.5 nM; in test [2] it was 4.1 nM; in test [3], 1740 nM.

On to `CNC(=O)CN(C)C1CCC(c2ccc3[nH]c(-c4cn5ncnc5c(C)c4C)c(C(C)C)c3n2)CC1` (stereo not drawn) [Example 420], for which the values for the IC50 in test [1], in test [2] and in test [3] were 2.8 nM, 1.2 nM and 3530 nM, respectively.

For `Cc1c(-c2[nH]c3ccc(C4CCC(NC5CC5)CC4)nc3c2C(C)C)cn2ncnc2c1C` (stereo not drawn) [Example 421], the IC50 in test [1] is 1.8 nM; in test [2] it was 1.6 nM; in test [3], 2060 nM.

Turning to `CNC(=O)CN(C)C1CCC(c2ccc3[nH]c(-c4cn5ncnc5c(C)c4C)c(C(C)C)c3n2)CC1` (stereo not drawn) [Example 422], the figures for the IC50 in test [1], in test [2] and in test [3] were 35 nM, 15 nM and 6240 nM, respectively.

`Cc1c(-c2[nH]c3ccc(C4CCC(NCCS(=O)(=O)C(F)(F)F)CC4)nc3c2C(C)C)cn2ncnc2c1C` (stereo not drawn) [Example 423]: the IC50 in test [1] was 83 nM; in test [2] it was 175 nM; in test [3] it was above 50000 nM.

Turning to `Cc1c(-c2[nH]c3ccc(C4CCC(N(C)CCS(C)(=O)=O)CC4)nc3c2C(C)C)cn2ncnc2c1C` (stereo not drawn) [Example 425], the IC50 was determined as 0.5 nM in test [1], 0.87 nM in test [2] and 2920 nM in test [3].

`Cc1c(-c2[nH]c3ccc(C4CCC(NC5CC5)CC4)nc3c2C(C)C)cn2ncnc2c1C` (stereo not drawn) [Example 426]: the IC50 in test [1] is 2.6 nM; in test [2] it was 2.5 nM; in test [3], 1400 nM.

Turning to `Cc1c(-c2[nH]c3ccc(C4CCC(N(C)CCS(C)(=O)=O)CC4)nc3c2C(C)C)cn2ncnc2c1C` (stereo not drawn) [Example 427], the figures for the IC50 in test [1], in test [2] and in test [3] were 7.6 nM, 2.4 nM and 4900 nM, respectively.

As to `Cc1c(-c2[nH]c3ccc(C4CCC(N(CCC#N)C5CC5)CC4)nc3c2C(C)C)cn2ncnc2c1C` (stereo not drawn) [Example 428], the IC50 in test [1] was 6.4 nM; in test [2], 7.4 nM; in test [3], 9860 nM.

With `COCCNC1CCC(c2ccc3[nH]c(-c4cn5ncnc5c(C)c4C)c(C(C)C)c3n2)CC1` (stereo not drawn) [Example 429], the IC50 in test [1] is 5.2 nM; in test [2] it was 3.4 nM; in test [3], 7000 nM.

As to `COCCNC1CCC(c2ccc3[nH]c(-c4cn5ncnc5c(C)c4C)c(C(C)C)c3n2)CC1` (stereo not drawn) [Example 431], the values for the IC50 in test [1], in test [2] and in test [3] were 11 nM, 16 nM and 4660 nM, respectively.

As for `Cc1c(-c2[nH]c3ccc(C4CCC(NCCC#N)CC4)nc3c2C(C)C)cn2ncnc2c1C` (stereo not drawn) [Example 432], the IC50 worked out at 0.55 nM in test [1], 0.37 nM in test [2] and 584 nM in test [3].

Turning to `Cc1c(-c2[nH]c3ccc(C4CCC(N(CCC#N)C5CC5)CC4)nc3c2C(C)C)cn2ncnc2c1C` (stereo not drawn) [Example 433], the IC50 in test [1] is 60 nM; in test [2], 42 nM; in test [3] it was above 50000 nM.

On to `Cc1c(-c2[nH]c3ccc(C4CCC(N5CC(C#N)C5)CC4)nc3c2C(C)C)cn2ncnc2c1C` (stereo not drawn) [Example 434], for which the IC50 in test [1] amounted to 2.4 nM; in test [2] it was 1.5 nM; in test [3], 7430 nM.

On to `CC(=O)N(C)C1CCC(c2ccc3[nH]c(-c4cn5ncnc5c(C)c4C)c(C(C)C)c3n2)CC1` (stereo not drawn) [Example 439], for which the IC50 is 32 nM in test [1], 3.5 nM in test [2] and 24200 nM in test [3].

In the case of `CC(=O)N(C)C1CCC(c2ccc3[nH]c(-c4cn5ncnc5c(C)c4C)c(C(C)C)c3n2)CC1` (stereo not drawn) [Example 440], the IC50 was 14 nM in test [1], 6.4 nM in test [2] and above 50000 nM in test [3].

With `Cc1c(-c2[nH]c3ccc(C4CCC(N(CC#N)C5COC5)CC4)nc3c2C(C)C)cn2ncnc2c1C` (stereo not drawn) [Example 441], the IC50 in test [1] was determined as 0.63 nM; in test [2], 0.79 nM; in test [3] it was 1660 nM.

With `Cc1c(-c2[nH]c3ccc(C4CCC(N5CCN(C)C(=O)C5)CC4)nc3c2C(C)C)cn2ncnc2c1C` (stereo not drawn) [Example 442], the IC50 in test [1] came out at 3.5 nM; in test [2], 3.7 nM; in test [3] it was 18300 nM.

For `Cc1c(-c2[nH]c3ccc(C4CCC(N(CCO)C5COC5)CC4)nc3c2C(C)C)cn2ncnc2c1C` (stereo not drawn) [Example 444], the IC50 in test [1] was 5.2 nM; in test [2], 16 nM; in test [3], 39200 nM.

For `Cc1c(-c2[nH]c3ccc(C4CCC(N5CC(S(C)(=O)=O)C5)CC4)nc3c2C(C)C)cn2ncnc2c1C` (stereo not drawn) [Example 445], the values for the 50% inhibitory concentration (IC50) in test [1], in test [2] and in test [3] were 3.6 nM, 1.5 nM and 4890 nM, respectively.

For the compound `Cc1c(-c2[nH]c3ccc(C4CCC(NCCS(N)(=O)=O)CC4)nc3c2C(C)C)cn2ncnc2c1C` (stereo not drawn) [Example 446], the IC50 in test [1] amounted to 0.91 nM; in test [2], 0.91 nM; in test [3] it was 364 nM.

Take `Cc1c(-c2[nH]c3ccc(C4CCC(NCCS(N)(=O)=O)CC4)nc3c2C(C)C)cn2ncnc2c1C` (stereo not drawn) [Example 447]: the results for the IC50 in test [1], in test [2] and in test [3] were 2.3 nM, 1.7 nM and 1640 nM, respectively.

Regarding `Cc1c(-c2[nH]c3ccc(C4CCC(N5CC(S(C)(=O)=O)C5)CC4)nc3c2C(C)C)cn2ncnc2c1C` (stereo not drawn) [Example 448], the IC50 in test [1] was 24 nM; in test [2], 7.5 nM; in test [3] it was 7690 nM.

For `CNC(=O)CN(C1CCC(c2ccc3[nH]c(-c4cn5ncnc5c(C)c4C)c(C(C)C)c3n2)CC1)C1COC1` (stereo not drawn) [Example 449], the IC50 in test [1] is 165 nM; in test [2], 323 nM; in test [3] it was 18000 nM.

Consider `Cc1c(-c2[nH]c3ccc(C4CCC(NCCS(C)(=O)=O)CC4)nc3c2C(C)C)cn2ncnc2c1C` (stereo not drawn) [Example 450], for which the IC50 was found to be 0.71 nM in test [1], 0.61 nM in test [2] and 1190 nM in test [3].

With `Cc1c(-c2[nH]c3ccc(C4CCC(NC5CCOCC5)CC4)nc3c2C(C)C)cn2ncnc2c1C` (stereo not drawn) [Example 451], the half-inhibitory concentration (IC50) in test [1] was 0.63 nM; in test [2], 0.48 nM; in test [3] it was 1040 nM.

On to `Cc1c(-c2[nH]c3ccc(C4CCC(NCCS(C)(=O)=O)CC4)nc3c2C(C)C)cn2ncnc2c1C` (stereo not drawn) [Example 452], for which the figures for the IC50 in test [1], in test [2] and in test [3] were 4.4 nM, 2.7 nM and 3090 nM, respectively.

As for `Cc1c(-c2[nH]c3ccc(C4CCC(NC5CCOCC5)CC4)nc3c2C(C)C)cn2ncnc2c1C` (stereo not drawn) [Example 453], the IC50 in test [1] was 3.3 nM; in test [2], 4 nM; in test [3], 1440 nM.

With `Cc1c(-c2[nH]c3ccc(C4CCC(NCC(C)(C)S(C)(=O)=O)CC4)nc3c2C(C)C)cn2ncnc2c1C` (stereo not drawn) [Example 454], the IC50 in test [1] was determined as 0.68 nM; in test [2], 1.2 nM; in test [3] it was 2390 nM.

With `Cc1c(-c2[nH]c3ccc(C4CCC(NCC(C)(C)S(C)(=O)=O)CC4)nc3c2C(C)C)cn2ncnc2c1C` (stereo not drawn) [Example 455], the values for the IC50 in test [1], in test [2] and in test [3] were 12 nM, 14 nM and 9200 nM, respectively.

For `Cc1c(-c2[nH]c3ccc(C4CCC(N(CC#N)CC(=O)N(C)C)CC4)nc3c2C(C)C)cn2ncnc2c1C` (stereo not drawn) [Example 456], the IC50 in test [1] came to 8.1 nM; in test [2] it was 2.6 nM; in test [3], 7730 nM.

Regarding `Cc1c(-c2[nH]c3ccc(C4CCC(N(CC#N)CCS(C)(=O)=O)CC4)nc3c2C(C)C)cn2ncnc2c1C` (stereo not drawn) [Example 457], the values for the IC50 in test [1], in test [2] and in test [3] were 0.3 nM, 0.32 nM and 622 nM, respectively.

Consider `Cc1c(-c2[nH]c3ccc(C4CCC(N(CC#N)CCS(C)(=O)=O)CC4)nc3c2C(C)C)cn2ncnc2c1C` (stereo not drawn) [Example 458], for which the figures for the IC50 in test [1], in test [2] and in test [3] were 10 nM, 5 nM and 9840 nM, respectively.

Consider `Cc1c(-c2[nH]c3ccc(C4CCC(N(CC#N)CC(=O)N(C)C)CC4)nc3c2C(C)C)cn2ncnc2c1C` (stereo not drawn) [Example 459], for which the half-maximal inhibitory concentration (IC50) came out at 4.3 nM in test [1], 6.2 nM in test [2] and 2790 nM in test [3].

On to `Cc1c(-c2[nH]c3ccc(C4CCC(N(CCO)CCS(C)(=O)=O)CC4)nc3c2C(C)C)cn2ncnc2c1C` (stereo not drawn) [Example 461], for which the IC50 is 1.7 nM in test [1], 2.6 nM in test [2] and 8470 nM in test [3].

Consider `CCN(CC(=O)N(C)C)C1CCC(c2ccc3[nH]c(-c4cn5ncnc5c(C)c4C)c(C(C)C)c3n2)CC1` (stereo not drawn) [Example 462], for which the IC50 in test [1] was 8.4 nM; in test [2], 6.9 nM; in test [3], 4540 nM.

Take `Cc1c(-c2[nH]c3ccc(C4CCC(N(CCO)CC(=O)N(C)C)CC4)nc3c2C(C)C)cn2ncnc2c1C` (stereo not drawn) [Example 463]: the IC50 in test [1] was 24 nM; in test [2] it was 7.4 nM; in test [3] it was 16000 nM.
